Measurements from article PMC11372839, “Unraveling the Potential of Vitamin B3-Derived Salts with a Salicylate Anion as Dermal Active Agents for Acne Treatment” (Molecular Pharmaceutics, 2024).
Where two headings read alike, the source gives them in different places.

Experiments:
Cutibacterium acnes = experiment: MIC and MBC determination, microdilution method; assay type: cell-based; conditions: for MIC / MBC: Cutibacterium acnes; for MIC: 48 h, read-out: MIC, C. acnes; for MBC: read-out: MBC, C. acnes
Protocol: (§1) The antimicrobial activities of the compounds were tested against clinical strains of an aerobic Gram-negative bacterium—Pseudomonas aeruginosa (P. aeruginosa), facultative anaerobic Gram-positive bacteria—Staphylococcus aureus (S. aureus) and Staphylococcus epidermidis (S. epidermidis), anaerobic Gram-positive bacterium—Cutibacterium acnes (C. acnes), and yeast-like fungus—Candida albicans (C. albicans).
(§2) Aerobic and facultative anaerobic bacteria cultures were grown in Brain Heart Infusion broth (BHI, bioMerieux, France) at 35 °C ± 1 °C for 18 h, C. acnes cultures were grown in thioglycolate broth with resazurin (TGB, bioMerieux, France) at 35 ± 1 °C for 48 h, and yeast cultures were grown in Sabouraud dextrose broth (SDB, Merck, Germany) at 35 ± 1 °C for 24 h. After incubation, each culture was diluted in a suitable liquid medium: P. aeruginosa, S. aureus, and S. epidermidis—Mueller–Hinton broth (MHB; Oxoid, UK); C. acnes—TGB; and C. albicans—SDB, to obtain a final suspension containing about 10^6 CFU/mL.
(§3) The microdilution method was employed to determine the compounds’ MIC (Minimal Inhibitory Concentration) and MBC/MFC (Minimal Bactericidal Concentration/Minimal Fungicidal Concentration) against the tested bacterial and fungal strains.
(§4) The compounds were serially diluted (2-fold) in the respective media (P. aeruginosa, S. aureus, and S. epidermidis—MHB, C. acnes—TGB, and C. albicans—SDB in 96-well plates), and the microbial suspensions were added. The compounds were tested in the final concentration range of 4 096 to 0.125 μg/mL, and the final microbial inoculum was approximately 5 ×10^5 CFU/mL. The tests were incubated at 35 °C ± 1 °C for 18 h (P. aeruginosa, S. aureus, and S. epidermidis) or 24 h (C. albicans) or 48 h (C. acnes). C. acnes was incubated in an anaerobic atmosphere using a GENbag anaer (bioMerieux, France). Media (without the strains) added to the different concentrations of tested compounds and media inoculated with microbial suspension were used as a negative control and growth control, respectively.
(§5) The MIC was defined as the lowest concentration at which visible growth was inhibited. MBC and MFC concentrations were determined as an extension of the MIC test. […] The plates were incubated at 35 ± 1 °C for 18–72 h. C. acnes was incubated in an anaerobic atmosphere. The MBC/MFC was defined as the lowest concentration at which no growth was observed. All tests were performed in duplicate.

Staphylococcus aureus = experiment: MIC and MBC determination, microdilution method; assay type: cell-based; conditions: for MIC: 18 h, read-out: MIC, S. aureus; for MBC: read-out: MBC, S. aureus
Protocol: as §1, §2, §3, §4, §5

Pseudomonas aeruginosa = experiment: MIC and MBC determination, microdilution method; assay type: cell-based; conditions: for MIC: 18 h, read-out: MIC, P. aeruginosa; for MBC: read-out: MBC, P. aeruginosa
Protocol: as §1, §2, §3, §4, §5

[1] = tested on: Staphylococcus epidermidis; experiment: MIC and MBC determination, microdilution method;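 on all read-outs here: column refers to Staphylococcus epidermidis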; assay type: cell-based; conditions: for MIC: 18 h, read-out: MIC, S. epidermidis; for MBC: read-out: MBC, S. epidermidis
Protocol: as §1, §2, §3, §4, §5

Artemia franciscana = experiment: Ecotoxicity toward aquatic life, Artoxkit M immobilization test; assay type: in vivo; conditions: for EC50: Artemia franciscana; for Class: acute toxicity rating scale by Fish and Wildlife Service
Protocol: To determine the EC50 parameter for compounds, tests were carried out on marine crustaceans—Artemia franciscana (A. franciscana). The methodology proposed in the Artoxkit M test (MicroBioTests Inc., Gent, Belgium) was developed according to the ASTM E1440-91 standard.
The hatching process was started first. For this purpose, 50 mg of cysts was transferred to the Petri dishes attached to the Artoxkit M set, which were then immersed in 10 mL of artificial seawater with a salinity of 35‰ (a medium for the development of the tested organisms, as well as a solvent for preparing solutions of the tested compounds) and placed at a temperature of 25 °C, with access to light (6000–10,000 lux) for 30 h. Then, 2 h before placing them on the Artoxkit M plates, 20 mg of spirulina was added to cultured artemias. In addition, 1 h before the analysis, the used seawater was oxygenated by passing a stream of air through the solution. To each of the four cells in a given row of a plate from the Artoxkit M kit, 1 mL of solution at the specified concentrations (or the appropriate medium in the case of a control) were introduced. In the first column of cells (a control sample and five selected concentrations), no less than 30 artemias were placed from previously prepared Petri dishes. Then, from the first cell in the first column, artemias were collected at the selected concentration and added to the next three cells in the selected row, 10 organisms per cell. After the organisms were introduced into the appropriate cells, the plates were covered with Parafilm and then closed with a plastic cap. The prepared kit was incubated at 25 °C and protected from light. Number of motionless organisms were counted after 24 and 48 h. Immobilization was then calculated (eq 1) in relation to the number of organisms at the start of the test: [drawing 1] 1
Next, the dependence between the effect and concentration of the tested compounds was plotted, and on this basis, an EC50 value was determined.

Solubility in PBS = conditions: for Solubility in PBS, Class: Pharmacopeia solubility class, PBS pH 7.4, 25 °C
Protocol: The solubility in PBS solution was determined by placing 1 g (±0.0001) of tested compound in a round-bottom flask and adding specific parts of the PBS solution in portions until full dissolution. The samples were vigorously stirred for at least 5 min before the addition of the next portion of PBS, and the systems were thermostated at 25 °C. Three repetitions of the measurement were performed for each of the compounds.
Most studies on the solubility of novel APIs are carried out with pure water, aqueous PBS solutions were much more preferred due to their higher similarity to intra- and intercellular media in epidermis, while envisaging their use in transdermal delivery and skin care applications.[60] […] The collected data are presented in Figure 8 (as well as in Table S6 in the Supporting Information).

Candida albicans = experiment: MIC and MFC determination, microdilution method; assay type: cell-based; conditions: for MIC: 24 h, read-out: MIC, C. albicans; for MFC: read-out: MFC, C. albicans
Protocol: as §1, §2, §3, §4, §5

[2] = Octanol–water partition coefficient, shake-flask method (OECD Test No. 107); assay type: physicochemical
Protocol: The octanol–water partition coefficients (KOW) of the synthesized products were estimated by the shake-flask method according to the OECD Test No. 107 guidelines (Partition Coefficient n-Octanol/Water: Shake-Flask Method). Measurements were performed using mutually saturated distilled water and 1-octanol in a glass vial containing a magnetic stir bar. First, the synthesized products were dissolved in distilled water (or 1-octanol) at a chosen concentration (0.01 mol per 1 L of octanol or water), and then proper amounts of the second solvent (octanol or water) were added. Subsequently, two duplicate runs were carried out with different solvent ratios: 4 mL of 1-octanol and 2 mL of water (2:1), 4 mL of 1-octanol and 4 mL of water (1:1), and 4 mL of 1-octanol and 8 mL of water ([…]). All vials were shaken at a constant temperature of 25 °C. After 24 h, all samples were centrifuged and the aqueous and octanolic phases were collected with a syringe. The concentrations of compounds in water were determined spectrophotometrically using a Rayleigh UV-1601 spectrophotometer (Beijing Beifen-Ruili Analytical, China) based on calibration curves made previously (at λmax = 262 nm) vs concentration for each substance. Two repetitions of each measurement were performed in a specific solvent ratio (1:1, 1:2, and 2:1). Finally, the log KOW was calculated as the average of six results collected for each compound.
The outermost layer of the skin (stratum corneum) contains around […] water, a relatively low amount compared to the rest of the human body. Given the hydrophobic nature of 1-octanol, it can be used as a simplified model for the stratum corneum.[50] The octanol–water partition coefficient (KOW) value represents the proportion between the concentrations of a substance in both liquid phases of a system composed of water and 1-octanol. […] The log KOW values are given in Figure 6 (exact values are provided in Table S4, Supporting Information).

[3] = Contact angle of aqueous solutions, sessile drop method on paraffin; assay type: physicochemical; conditions: aqueous solution, 25 °C
Protocol: The contact angle (CA) measurements were carried out using a DSA100S analyzer (Krüss, Germany, accuracy ±0.1°), at 25 °C. The determination of the contact angle was based on the sessile drop method, i.e., drops of the analyzed solution were deposited on a solid surface (paraffin). The images of the drops were taken with a CCD camera, digitized, and evaluated using Young–Laplace fitting. The CA was determined as the slope of the tangent line at the contact point between the 3 phases (solution, paraffin surface, and air).
In the case of seborrheic skin, which occurs among many people affected by acne, the epidermis is covered by a hydrophobic lipid layer, which impedes the penetration of active substances, especially those that are well soluble in water. In addition, ensuring proper drug absorption through the skin can also reduce the risk of side effects and increase the effectiveness of therapy.[72] The addition of surfactants, which improve the wettability of hydrophobic surfaces, can be a solution to this problem.[73],[74] […] Wettability analyses of aqueous solutions of the new APIs were carried out on paraffin, whose hydrophobicity is similar to that of the human skin.[75] Experiments were performed at concentrations corresponding to common NA and SAL contents in commercial formulations (0.25–1.00%).[67],[76],[77] Due to low solubilities of 5–7, tests for these salts were performed at concentrations of 0.25, 0.03, and 0.01%, respectively (please see Figure S43 in the Supporting Information).

[4] = tested on: cyclooxygenase-2 (PDB ID: 1CX2); experiment: Molecular docking (AutoDock4); conditions: from docking IC50 values
Protocol: Docking studies were performed using the AutoDock4 program in AutoDockTools 1.5.7.[28] The structures for ligands (reference substances and N-alkylnicotinamide cations) were optimized for energy minimization using the MMFF94 force field in Avogadro 1.2.0 with the steepest descent algorithm and subsequently converted to a PDBQT format using OpenBabelGUI. The three-dimensional structure of target cyclooxygenase-2 (Protein Data Bank ID: 1CX2) was retrieved from Protein Data Bank (http://www.pdb.org) with a resolution of 3.00 Å. The protein molecule 1CX2 was prepared using AutoDockTools version 1.5.7. The preparation process involved checking for missing atoms, repairing any missing atoms, adding polar hydrogens and Kollman charges, and distributing charges over all of the atoms on residues. All cocrystallized compounds present in the 1CX2 structure (including water molecules and the ligand) were removed prior to the calculations. […] The interaction between the ligand and receptor and hydrogen bond lengths were analyzed using AutoDockTools and PLIP (Protein Ligand Interaction Profiler) developed by Biotechnology Center TU Dresden (BIOTEC).

[5] = parameters: method as in doi:10.1080/10826076.2015.1057642, PMID 22469554, PMID 31982561; conditions: frequently used topical acne agents; cited from earlier work
[6] = immobilization, motionless organisms counted after 24 and 48 h, 25 °C, read-out: EC50
[7] = toxicity range of EC50, read-out: Range
[8] = shake-flask, 25 °C, 24 h, average of six results, read-out: Octanol-water partition coefficient (log Kow)
[9] = volume of PBS (pH 7.4) to dissolve 1 g, 25 °C

SMILES | MIC (Staphylococcus aureus) [µg/mL] | MBC (Staphylococcus aureus) [µg/mL] | MIC (Pseudomonas aeruginosa) [µg/mL] | MIC [1] [µg/mL] | MBC [1] [µg/mL] | EC50 (Artemia franciscana; [7]) [µg/mL] | Class (Artemia franciscana) | Solubility in PBS, Class (Solubility in PBS) | MIC (Candida albicans) [µg/mL] | logP at 24 h [2, 8] | Solubility in PBS, PBS [ml] (Solubility in PBS; [9]) [mL] | Contact angle ([3]; concentration 0.25%) [°] | Contact angle ([3]; concentration 0.50%) [°] | Contact angle ([3]; concentration 1.00%) [°] | further results
CCCCCCCCCCCCCC[n+]1cccc(C(N)=O)c1.O=C([O-])c1ccccc1O [compound 7] | 0.5 | 0.5 | 64 | 4 | 4 | 100 to 1000 | Practically Nontoxic (100-1000) | Very Slightly Soluble (1000-10 000) | 16 | 1.34 |  |  |  |  | MIC (Cutibacterium acnes): 4 µg/mL; MBC (Cutibacterium acnes): 4 µg/mL; MBC (Pseudomonas aeruginosa): 64 µg/mL; EC50 (Artemia franciscana; [6]): 155 µg/mL; MFC (Candida albicans): 16 µg/mL
CC[n+]1cccc(C(N)=O)c1.O=C([O-])c1ccccc1O [compound 1] | 1020 |  |  | 4100 |  | > 1000 | Relatively Harmless (>1000) | Very Soluble (<1) |  | -1.15 | < 1 | 112.1 | 110.3 | 109.7 | 
CCCC[n+]1cccc(C(N)=O)c1.O=C([O-])c1ccccc1O [compound 2] | 1020 |  |  | 2050 |  | > 1000 | Relatively Harmless (>1000) | Very Soluble (<1) |  | -0.7 | < 1 | 102.7 | 104.3 | 103.9 | 
CCCCCCCCCCCC[n+]1cccc(C(N)=O)c1.O=C([O-])c1ccccc1O [compound 6] | 8 | 8 | 256 | 256 | 256 | 10 to 100 | Slightly Toxic (10-100) | Very Slightly Soluble (1000-10 000) | 256 | 0.6 |  |  |  |  | MIC (Cutibacterium acnes): 64 µg/mL; MBC (Cutibacterium acnes): 64 µg/mL; MBC (Pseudomonas aeruginosa): 256 µg/mL; EC50 (Artemia franciscana; [6]): 89.7 µg/mL; MFC (Candida albicans): 256 µg/mL; times more potent than NA itself [4]: 125 times
NC(=O)c1cccnc1.O=C(O)c1ccccc1O [[NA][SAL], reference compound] | 2050 | 2050 | 2050 | 2050 | 2050 |  | Practically Nontoxic (100-1000) | Sparingly Soluble (30-100) | 2050 |  | 30 to 100 | 110.5 | 108.3 | 99.9 | MBC, C. acnes (Cutibacterium acnes; clinical strain, anaerobic, tested 4 096 to 0.125 μg/mL, b = out of range): did not show bactericidal activity; EC50 (Artemia franciscana): 565 µg/mL; EC50 (Artemia franciscana; read-out: Range): 100 to 1000 µg/mL; Contact angle ([3]; concentration 1.00%, listed as cocrystal): 100 °
NC(=O)c1cccnc1 [NA, nicotinamide, reference compound] |  |  |  |  |  | > 1000 | Relatively Harmless (>1000) |  |  |  |  | 112.7 | 110.7 | 110.6 | Solubility in PBS, PBS [ml] (Solubility in PBS; pH 7.4): < 1 mL; logP at 24 h [2]: -0.66
O=C(O)CCCCCCCC(=O)O [azelaic acid] |  |  |  |  |  |  |  |  |  |  |  |  |  |  | log KOW [5]: 1.42
